From patent publication US20070244076A1, “Site and Rate Selective Prodrug Formulations of D609 with Antioxidant and Anticancer Activity” (priority 2003, published 2007)
Where a name gives a salt, the structure may show the parent alone. Blank lines part the entries; values can stand above or below the molecule they belong to. Numbered stars: 1 amine (or outer) side, 2 acyl side, 3 side chain; on linkers, the order of the positions; unused ones are H or OH. Bridge positions count the residues as written; N and C are the ends. Square brackets hold non-standard residues; d marks the D form. Peptide text beside a SMILES is read from it. I, II: the chains in the order shown. Actinocin(9to1) = Cc1c2oc3c(C)ccc(C(=O)[*:1])c3nc-2c(C(=O)[*:2])c(N)c1=O; NMeV = CN[C@H](C(=O)O)C(C)C; Sar = CNCC(=O)O

Columns and labels:
[1] = cited from earlier work
[2] = previously untreated chronic myelogenous leukemia; cited from earlier work
[3] = cited from earlier work; remark: listed apart in the source
U937 cells = assay: U937 apoptosis, Annexin V-FITC staining and flow cytometry; assay type: cell-based, Human; details: for induction of apoptosis: 24 hr, low dose of H7 (25 μM) or ceramide (5 μM)
Experimental: It is well known that ceramide functions as a negative cell regulator that can induce cell cycle arrest, senescence or apoptosis. In contrast, DAG stimulates cell proliferation and promotes cell survival, primarily via activation of PKC. To determine if the changes in the levels of ceramide and DAG resulting from SMS inhibition contribute to D609-induced apoptosis in U937 cells, the cells were incubated with vehicle, H7 (a PKC inhibitor), ceramide, or H7 plus ceramide. U937 cells (1×10^6/ml) were incubated with 5 μM C6-ceramide and 25 μM H7 alone or combination for 24 hr at 37° C. Apoptosis of the cells was measured by Annexin V-FITC staining and flow cyotmetry and expressed as percent of Annexin V positive cells. a, p<0.05 vs Control; b, p<0.05 vs H7- or C6-treated cells (FIG. 11).
In these experiments, U937 cells were pre-incubated with PMA (25 nM) for 30 min. and then were cultured with vehicle or D609 (150 μM) for 24 hrs.

[4] = test system: Porcine liver esterase (PLE); assay: Esterase-catalyzed hydrolysis of D609 prodrugs; assay type: in vitro ADME; details: for T1/2 / kobs: 300 μM, 0.1 unit/ml PLE, 37° C., pH 7.4
Experimental: FIG. 18A, FIG. 18B, FIG. 18C: Esterase-catalyzed hydrolysis of D609 prodrugs. Prodrugs (300 μM in 15% DMSO/PBS, pH 7.4), 1 (FIG. 18A), 2 (FIG. 18B) and 3 (FIG. 18C), were incubated at 37° C. in the presence of 0.1 unit/ml PLE. […] The data are presented as the mean±SEM of three independent assays.
To determine the hydrolytic property of D609 prodrugs 1, 2, and 3 (300 μM in 15% DMSO/PBS, pH7.4), these prodrugs were incubated with 0.1 unit/ml PLE at 37° C. After various times during incubation, the rate of hydrolysis of these D609 prodrugs was monitored by HPLC analysis. […] The concentration of D609 (μM) was calculated based on a linear D609-DTNB standard curve. The pseudo-first-order plots for the hydrolysis of these prodrugs were constructed from the logarithm of remaining ester versus time (FIG. 18). The end points of the reaction (150 min) were defined as when the hydrolysis of these prodrugs was over 99% complete and the release of D609 reached plateau. The pseudo-first-order rate constant (Kobs) and T1/2 (=0.693/Kobs) were calculated based on the slope of the linear portion of the curve for each of these prodrugs and are presented in Table 1 (Gilmer et al., 2002).

[5] = target: phospholipase C (Type XI from B. cereus) (Bacillus cereus, UniProt P09598); assay type: biochemical; details: 2 hrs at 37° C., pNPP 40 mM
Chain of phospholipase C (Type XI from B. cereus) (P09598 39-283 limits assumed): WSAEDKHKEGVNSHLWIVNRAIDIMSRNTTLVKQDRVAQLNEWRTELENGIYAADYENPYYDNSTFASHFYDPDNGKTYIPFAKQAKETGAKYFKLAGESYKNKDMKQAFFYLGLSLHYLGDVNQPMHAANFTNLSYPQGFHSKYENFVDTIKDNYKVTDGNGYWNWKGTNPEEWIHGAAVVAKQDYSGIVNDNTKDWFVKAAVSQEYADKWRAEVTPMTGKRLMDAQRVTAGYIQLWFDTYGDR
Experimental: (§1) In this study, p-nitrophenyl-phosphorylcholine (pNPP, 40 mM) was incubated with 2 U/ml phospholipase C (Type XI from B. cereus) in the presence or absence of various concentrations of inhibitors for 2 hrs at 37° C. The amount of the cleaved substrate pNPP was quantified by determination of the optical density at 410 nm using an ELISA reader. The results are expressed as percent of vehicle control and presented as means±SEM (n=3) (FIG. 9A). NBD-C6-ceramide and PC were incubated with U937 cell lysates containing 50 μg protein in the presence or absence of various concentrations of inhibitors for 30 min at 30° C. The formation of NBD-C6-sphingomyelin as analyzed by TLC and quantified by determination of the fluorescent intensity of NBD-C6-sphingomyelin using a phosphorimager. The results are expressed as percent of vehicle control (FIG. 9B). U937 cells were incubated with different concentrations of inhibitors for 48 hours.

[6] = test system: sphingomyelin synthase (SMS); assay: SMS activity in U937 cell lysates with inhibitor added (cell lysate-based in vitro assay); assay type: biochemical, Human; details: 30 min at 30° C.
Experimental: as §1

alkaline phosphatase = details: 222 μM, 3.125 U/ml, pH 9.0, 37° C.
[7] = Chevion et al., 1997; cited from earlier work

Compound: Cc1c2oc3c(C)ccc(C(=O)N[C@@H]4C(=O)N[C@H](C(C)C)C(=O)N5CCC[C@H]5C(=O)N(C)CC(=O)N(C)[C@@H](C(C)C)C(=O)O[C@@H]4C)c3nc-2c(C(=O)N[C@@H]2C(=O)N[C@H](C(C)C)C(=O)N3CCC[C@H]3C(=O)N(C)CC(=O)N(C)[C@@H](C(C)C)C(=O)O[C@@H]2C)c(N)c1=O [Actinomycin D] (I: T[dV]P[Sar][NMeV] / II: T[dV]P[Sar][NMeV]; ester I:1-I:C, II:1-II:C; linker I:N-II:N via Actinocin(9to1))
excreted intact into the bile ([1]; in vivo): Half of the dose
excreted intact into the urine ([1]; in vivo): 10%
half-life (elimination) ([1]; in vivo): about 36 hr
passage of the blood-brain barrier ([1]; in vivo): does not pass the blood-brain barrier

Compound: CS(=O)(=O)OCCCCOS(C)(=O)=O [Busulfan, 1,4-butanediol dimethanesulfonate]
adults obtaining hematologic remission [2]: Approximately 90%

Compound: O=C(O)CCCc1ccc(N(CCCl)CCCl)cc1 [Chlorambucil, 4-[bis(2-chlorethyl)amino] benzenebutanoic acid]
oral absorption ([1]; in vivo): rapidly and completely absorbed from the gastrointestinal tract

Compound: N.N.[Cl][Pt][Cl] [Cisplatin]
oral absorption ([1]; in vivo): not absorbed orally

Compound: COc1cccc2c1C(=O)c1c(O)c3c(c(O)c1C2=O)C[C@@](O)(C(C)=O)C[C@@H]3O[C@H]1C[C@H](N)[C@H](O)[C@H](C)O1 [Daunorubicin, 5,12-Naphthacenedione, (8S-cis)-8-acetyl-10-[(3-amino-2,3,6-trideoxy-a-L-lyxo-hexanopyranosyl)oxy]-7,8,9,10-tetrahydro-6,8,11 trihydroxy-10-methoxy-, hydrochloride]
oral absorption ([1]; in vivo): Oral absorption is poor
half-life (elimination) ([1]; in vivo): about 19 hr

Compound: COc1cccc2c1C(=O)c1c(O)c3c(c(O)c1C2=O)C[C@@](O)(C(=O)CO)C[C@@H]3O[C@H]1C[C@H](N)[C@H](O)[C@H](C)O1 [Doxorubicin, 5,12-Naphthacenedione, (8s-cis)-10-[(3-amino-2,3,6-trideoxy-α-L-lyxo-hexopyranosyl)oxy]-7,8,9,10-tetrahydro-6,8,11-trihydroxy-8-(hydroxyacetyl)-1-methoxy-hydrochloride]
oral absorption ([1]; in vivo): absorbed poorly
half-life (elimination) ([1]; in vivo): about 30 hr

Compound: O=NN(CCCl)C(=O)NC1CCCCC1 [Lomustine, 1-(2-chloro-ethyl)-3-cyclohexyl-1 nitrosourea]
radioactivity excreted as degradation products ([1]; oral, 30 mg/m^2 to 100 mg/m^2, within 24 hours): about half

Compound: CO[C@@]12[C@H](COC(N)=O)C3=C(C(=O)C(C)=C(N)C3=O)N1C[C@@H]1N[C@@H]12 [Mitomycin]
time required to reduce the serum concentration by 50% ([3]; 30 mg. bolus injection): 17 min
dose excreted unchanged in the urine ([3]; in vivo): Approximately 10%

Compound: CCCCCCCCCCCCCC(=O)O[C@@H]1[C@@H](C)[C@@]2(O)[C@@H](C=C(CO)C[C@]3(O)C(=O)C(C)=C[C@@H]23)[C@@H]2C(C)(C)[C@]12OC(C)=O [PMA]
effect on D609-induced apoptosis (U937 cells; PMA 25 nM 30 min before D609 150 μM, 24 hrs): partially attenuated D609-induced apoptosis

T1/2 [4]: 3.34 min
kobs [4]: 0.2074 min⁻¹
Compound: CC(=O)OCSC(=S)OC1CC2CC1C1CCCC21 (stereo not shown) [Prodrug 1, S-methyleneoxyacetyl D609]

T1/2 [4]: 23.22 min
kobs [4]: 0.02984 min⁻¹
% D609 (molar recovery of D609) ([4]; complete hydrolysis by esterase): 60%
Compound: CC(C)(C)C(=O)OCSC(=S)OC1CC2CC1C1CCCC21 (stereo not shown) [Prodrug 3, S-methyleneoxypivalyl D609]

Compound: CC1CNCCN1S(=O)(=O)c1cccc2cnccc12 (stereo not shown) [Prodrug H7]
induction of apoptosis (U937 cells): modest

Compound: OC1CC2CC1C1CCCC21 (stereo not shown) [Tricyclodecanol]
inhibition of PC-PLC activity [5]: devoid of any of these activities
inhibition of SMS activity [6]: devoid of any of these activities

Compound: CC[C@]1(O)C[C@@H]2CN(CCc3c([nH]c4ccccc34)[C@@](C(=O)OC)(c3cc4c(cc3OC)N(C)[C@H]3[C@@](O)(C(=O)OC)[C@H](OC(C)=O)[C@]5(CC)C=CCN6CC[C@]43[C@@H]65)C2)C1 [Vinblastine]
oral absorption ([1]; in vivo): Unpredictable absorption
excreted intact into the urine ([1]; in vivo): Approximately 15%
recovered in the feces after biliary excretion ([1]; in vivo): about 10%
plasma half-life after distribution (first) ([1]; intravenous injection): approximately 1 hours
plasma half-life after distribution (second) ([1]; intravenous injection): ~72000 s
peak concentration in plasma ([1]; usual clinical doses): approximately 0.4 mM

Compound: CC[C@]1(O)C[C@H]2CN(CCc3c([nH]c4ccccc34)[C@@](C(=O)OC)(c3cc4c(cc3OC)N(C=O)[C@H]3[C@@](O)(C(=O)OC)[C@H](OC(C)=O)[C@]5(CC)C=CCN6CC[C@]43[C@@H]65)C2)C1 [Vincristine]
oral absorption ([1]; in vivo): Unpredictable absorption
terminal half-life ([1]; plasma): about 24 hours

Compound: CCCCCCCCCCCCCC=CC(O)C(CO)NC(=O)CCCCC (stereo not shown) [ceramide]
induction of apoptosis (U937 cells): modest

Compound: CC(C)(C)OP(=O)(OCSC(=S)OC1CC2CC1C1CCCC21)OC(C)(C)C (stereo not drawn) [compound 7, S-(methylenoxy)-D609, di(t-butoxy)phosphoryl]
time to complete hydrolysis (alkaline phosphatase): ≤ 60 min

Compound: S=C(S)OC1CCCCC1 [cyclohexyl xanthate]
inhibition of PC-PLC activity [5]: dose-dependently inhibited
inhibition of SMS activity [6]: had no effect

Compound: COc1cccc2c1C(=O)c1c(O)c3c(c(O)c1C2=O)C[C@@](O)([C@H](C)O)C[C@@H]3O[C@H]1C[C@H](N)[C@H](O)[C@H](C)O1 [daunorubicinol]
half-life (elimination) ([1]; in vivo): about 27 hr

Compound: O=C1O[C@H]([C@@H](O)CO)C(O)=C1O [vitamin C]
E1/2 [7]: 380 mV
